Source: patent publication EP1220852B1, “SUBSTITUTED DIAZEPANS” (Novartis AG, priority 1999, dated 2001)

What was measured:
[1] = system: allergic contact dermatitis; experiment: Allergic contact dermatitis (ACD), oxazolone-induced, pinnal weight; assay type: in vivo, female NMRI mice; details: pinnal weight 24 h after challenge
Experimental: ii) Allergic Contact Dermatitis (ACD)
Groups of 8 female NMRI mice are sensitized on the shaved abdomen with 50 µl of oxazolone (Sigma, 2% in acetone) and challenged with 10 µl of 0.2 or 2.0% oxazolone on the inner surface of the right ear 7 days later. The low concentration of oxazolone for induction of the elicitation phase is used for testing compounds on […] activity whereas the high concentration is applied for […] testing. The unchallenged left ears serve as normal controls and dermatitis is evaluated from the individual differences in pinnal weight, which is taken as a measure of increase in inflammatory swelling 24 h after the challenge. Dermatitis is evaluated in test- and for comparison in control groups. The test groups are treated with the test compounds either orally (twice, 2 h and immediately before challenge), subcutaneously (immediately before challenge) or topically (30 min after challenge at the site of elicitation of the ACD); the controls are treated similarly with the vehicles alone. […] The data of the test- and the vehicle-treated control groups are statistically analysed by ANOVA followed by Dunnet T-test (normal distribution or data) or by H and U-test, respectively. […]

LFA-1/ICAM-1 = molecular target: T1, LFA-1/ICAM-1 (Homo sapiens, UniProt P05107+P20701); experiment: Cell free assay: binding of soluble human ICAM-1 to immobilized human LFA-1
T1 construct: endogenous in cells; host or cells: LFA-1: endogenous protein purified from JY cells (human lymphoblastoid B cell line); ICAM-1-Cκ fusion: made in house with the baculovirus system
T1 sequence (P20701 26-1170): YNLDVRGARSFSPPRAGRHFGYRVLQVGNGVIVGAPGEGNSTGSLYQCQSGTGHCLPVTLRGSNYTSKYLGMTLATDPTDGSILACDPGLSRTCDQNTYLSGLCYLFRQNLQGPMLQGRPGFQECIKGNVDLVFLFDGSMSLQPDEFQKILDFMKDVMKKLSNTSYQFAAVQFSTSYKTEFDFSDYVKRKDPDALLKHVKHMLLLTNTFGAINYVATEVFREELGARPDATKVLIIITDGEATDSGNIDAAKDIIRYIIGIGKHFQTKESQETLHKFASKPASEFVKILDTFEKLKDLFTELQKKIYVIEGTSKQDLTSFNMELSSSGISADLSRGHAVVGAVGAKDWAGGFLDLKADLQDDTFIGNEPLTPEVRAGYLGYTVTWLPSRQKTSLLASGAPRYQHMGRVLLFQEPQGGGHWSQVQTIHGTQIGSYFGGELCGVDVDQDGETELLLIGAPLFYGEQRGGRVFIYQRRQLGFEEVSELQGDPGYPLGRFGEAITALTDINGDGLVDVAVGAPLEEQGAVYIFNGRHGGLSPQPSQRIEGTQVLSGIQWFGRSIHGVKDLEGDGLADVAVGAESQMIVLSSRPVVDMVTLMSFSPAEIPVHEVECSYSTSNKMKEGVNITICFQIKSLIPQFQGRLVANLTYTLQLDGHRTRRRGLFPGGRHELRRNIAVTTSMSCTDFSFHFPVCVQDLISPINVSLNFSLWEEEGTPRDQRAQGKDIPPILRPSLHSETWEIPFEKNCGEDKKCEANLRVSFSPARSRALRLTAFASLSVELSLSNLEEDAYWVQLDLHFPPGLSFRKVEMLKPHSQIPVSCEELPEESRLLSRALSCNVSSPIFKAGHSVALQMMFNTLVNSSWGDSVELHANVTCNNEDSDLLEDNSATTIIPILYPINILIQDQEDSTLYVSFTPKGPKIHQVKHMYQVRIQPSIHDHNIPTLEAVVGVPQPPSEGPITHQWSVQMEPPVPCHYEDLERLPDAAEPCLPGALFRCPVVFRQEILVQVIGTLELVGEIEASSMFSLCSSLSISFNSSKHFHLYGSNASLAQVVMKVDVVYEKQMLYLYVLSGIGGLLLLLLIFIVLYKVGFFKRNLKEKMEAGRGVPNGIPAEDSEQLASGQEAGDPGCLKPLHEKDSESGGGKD
T1 sequence (P05107 23-769): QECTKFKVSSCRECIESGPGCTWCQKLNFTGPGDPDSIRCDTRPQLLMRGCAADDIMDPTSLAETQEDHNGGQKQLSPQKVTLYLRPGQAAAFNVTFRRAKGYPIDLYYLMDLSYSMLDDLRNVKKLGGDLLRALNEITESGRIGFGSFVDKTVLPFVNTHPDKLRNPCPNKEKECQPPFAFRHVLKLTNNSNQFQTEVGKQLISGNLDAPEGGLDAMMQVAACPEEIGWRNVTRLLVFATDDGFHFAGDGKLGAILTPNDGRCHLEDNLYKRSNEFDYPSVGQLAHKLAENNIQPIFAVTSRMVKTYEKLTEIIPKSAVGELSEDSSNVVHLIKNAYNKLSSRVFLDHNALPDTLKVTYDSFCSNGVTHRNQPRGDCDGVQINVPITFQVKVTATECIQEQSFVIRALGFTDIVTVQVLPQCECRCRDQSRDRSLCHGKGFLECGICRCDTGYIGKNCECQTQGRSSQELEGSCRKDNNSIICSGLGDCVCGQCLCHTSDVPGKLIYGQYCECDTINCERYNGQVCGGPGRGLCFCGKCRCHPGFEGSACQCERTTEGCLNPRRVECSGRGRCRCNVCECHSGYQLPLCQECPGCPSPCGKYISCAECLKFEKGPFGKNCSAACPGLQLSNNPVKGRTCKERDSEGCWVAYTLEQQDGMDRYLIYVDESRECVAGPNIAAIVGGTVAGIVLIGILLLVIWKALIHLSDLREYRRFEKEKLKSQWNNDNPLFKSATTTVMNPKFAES
Experimental: A. In vitro: Cell Free Assay
The assay measures the binding of soluble human ICAM-1 to immobilized human LFA-1. LFA-1 is purified from JY cells, a human lymphoblastoid B cell-line, by immunoaffinity chromatography as described by Dustin et a/. […] ICAM-1 mouse Cκ fusion protein (ICAM-1) is produced using the baculovirus system as described by Weitz-Schmidt et al. (Anal. Biochem.238,184-190, 1996).
Purified LFA-1 is diluted 1:20 in phosphate buffered saline (PBS) containing 2 mM MgCl2, pH 7.4 and coated onto microtitre plates (Nunc) at 37°C for 3h. Plates are blocked with 1% heat-treated BSA in PBS for 2 hours at 37°C followed by a washing step using PBS, 2mM MgCl2, 1% fetal calf serum, pH 7.4 (assay buffer). Compounds dissolved at 10 mM in DMSO are diluted in assay buffer and added to the plates. Biotinylated recombinant ICAM-1 in assay buffer (6 µg/ml) is added and allowed to bind at 37°C for one hour. After incubation, wells are washed with assay buffer. Streptavidin-peroxidase diluted 1:5000 in assay buffer is added and incubated for 45 min at 37 °C. Plates are then washed with assay buffer and 2.2'-azino-bis(3-ethylbenzothiazoiine-6 sulfonic acid) diammonium salt substrate solution is added to each well. The reaction is stopped after 20 min and bound ICAM-1 is determined by measuring the optical density at 405 nm in a microplate reader.

IC50 (LFA-1/ICAM-1): 70 nM
SMILES: C[C@@H]1CCN([C@H](Cc2cccc3ccccc23)C(N)=O)C(=O)[C@H](c2ccccc2)N1C(=O)Cc1ccc2ncccc2c1 [Example 3, (R)-2-[(3S,5R)-5-Methyl-2-oxo-3-phenyl-4-(quinolin-6-yl-acetyl)-[1,4]diazepan-1-yl)-3-(naphthalen-1-yl)-propionamide]
inhibiting effect ([1]; administered p.o. at a dose of 2 x 3 mg/kg): 40%
inhibiting effect ([1]; applied topically at a dose of 10 mM): 50%
